Key:
CD44v6 [1] = test: HGF-induced activation of Met and ERK in L3.6pl cells (Western blot); assay type: cell-based, human; settings: peptide before induction with 10 ng/ml HGF
Method in brief: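 L3.6pl human pancreatic carcinoma cells serum-starved 24 h, pretreated 10 min at 37° C with CD44v6 or control peptide (100 ng/mL), then stimulated with HGF (10 ng/mL) 5 min. Phospho-Met and phospho-ERK detected by western blot with total Met/ERK reprobe; bands quantified densitometrically.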

CD44v6 [2] = molecular target: T1, CD44v6 (Homo sapiens, UniProt P16070); test: Peptide blocking of EGF/TGFα-induced Erk phosphorylation in MCF7 cells (Western blot); assay type: cell-based; settings: peptide 100 ng/ml; for EGF-induced activation of the ErbB receptors (Erk phosphorylation): MCF7, serum-starved, EGF 20 ng/ml
T1 construct: endogenous in cells; host or cells: MCF7; MCF10A
T1 sequence (P16070 21-742): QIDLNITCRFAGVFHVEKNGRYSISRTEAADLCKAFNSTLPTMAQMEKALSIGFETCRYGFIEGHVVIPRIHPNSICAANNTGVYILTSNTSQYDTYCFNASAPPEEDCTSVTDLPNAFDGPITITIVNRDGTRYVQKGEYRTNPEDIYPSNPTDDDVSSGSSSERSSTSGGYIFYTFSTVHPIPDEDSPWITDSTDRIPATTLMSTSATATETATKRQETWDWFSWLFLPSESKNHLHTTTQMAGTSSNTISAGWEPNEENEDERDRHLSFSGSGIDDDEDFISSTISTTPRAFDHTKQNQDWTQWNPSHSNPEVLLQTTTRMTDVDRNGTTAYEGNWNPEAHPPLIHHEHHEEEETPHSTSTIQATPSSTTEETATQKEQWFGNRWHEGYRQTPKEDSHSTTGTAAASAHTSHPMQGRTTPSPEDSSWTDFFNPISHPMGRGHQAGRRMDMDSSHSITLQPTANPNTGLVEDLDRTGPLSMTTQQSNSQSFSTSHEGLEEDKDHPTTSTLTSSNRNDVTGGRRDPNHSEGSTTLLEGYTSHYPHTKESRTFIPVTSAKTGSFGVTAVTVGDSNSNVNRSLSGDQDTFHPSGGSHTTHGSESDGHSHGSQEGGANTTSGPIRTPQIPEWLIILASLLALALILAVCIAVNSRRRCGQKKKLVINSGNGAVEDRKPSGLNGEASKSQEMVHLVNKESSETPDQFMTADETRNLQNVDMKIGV
Experimental: (§1) 3×10^5 were seeded per well of a 6-well plate and serum-starved for 24 hours. Afterwards the medium inside of each well was reduced to 1 ml and the respective peptide (v6 (both peptides of SEQ ID No.: 2 and 6 were tested), or ctrl peptide) was added at a concentration of 100 ng/ml. The cells then were incubated together with the peptide at 37° C. for 5 mins. Ligand concentration for all peptide blocking experiments was 20 ng/ml.
(§2) To assay protein expression via Western blot cells were washed 1× with PBS and afterwards lysed in 2×Laemmli sample buffer (160 mM Tris-HCl pH 6.8, 4% SDS, 16% glycerol, 0.1M DTT, 0.01% bromphenol blue). The sample was sheared through a 26 gauge needle. In succession the lysates were boiled for 5 mins at 99° C. in order to denature the proteins in the sample and then spun down at 10 000 rmp for 1 min Eventually the samples were loaded onto an SDS-PAGE gel.
To test whether CD44v6 acts as a co-receptor in MCF7 or MCF10A cells, a peptide blocking experiment using peptides of SEQ ID NO: 6 was conducted. The cells were serum-starved for 24 h and then pre-incubated with a v6 peptide or an unspecific control peptide. Then, the cells were induced with EGF or HGF as a control. As a read-out for ErbB-activation, the phosphorylation of the Erk-kinase was used.

CD44v6 [3] = test: Peptide blocking of ErbB ligand- or HGF-induced Erk-kinase phosphorylation in HT29 cells (Western blot); assay type: cell-based, human; settings: peptide 100 ng/ml; for EGF-dependent Erk-phosphorylation: EGF 20 ng/ml
Experimental: as §1
The cells were incubated with the growth factors specified in the particular experiment. Except for the peptide blocking and migration assays, ligand concentration was 5 ng/ml at all times. Prior to induction the cells were treated as indicated in the results section.
as §2
In order to test whether CD44v6 plays a role in the activation of the ErbB family of receptors, a peptide blocking experiment using the 14mers of SEQ ID No. 6 was performed in HT29 cells. The fact that this cell line expresses all ErbB receptors (Wu et al, 2009, see references) and several CD44 variants including also exon v3 and v6 (Orian-Rousseau et al., 2002, see references) makes it a suitable tool to evaluate the co-receptor function of CD44 proteins for the ErbB family. The first ErbB1-ligand that was evaluated was EGF. […] The cells were serum starved for 24 hours and induced with EGF. Phosphorylation of the Erk-Kinase, a downstream target of the ErbB receptor family, was used as a read-out for ErbB receptor activation. HGF was used as a control to test the blocking efficiency of the CD44v6 peptide since the induction of the Erk kinase through Met is dependent on CD44v6 (Orian-Rousseau et al., 2002, see references).
Besides EGF, five other ligands, namely AR, BC, ER, HB-EGF, and TGFα, can activate the ErbB1 receptor. EGF, AR and TGFα bind to either an ErbB1-homo- or an ErbB1/2-heterodimer. In addition to these dimers, BC, ER and HB-EGF can also bind to an Erb4/4 homo- or an ErbB2/4 heterodimer. It was investigated whether the activation of the ErbB receptors by the indicated ligands is also dependent on CD44v6. HT29 cells were serum-starved for 24 hours and pre-treated with the v6-specific or a control peptide. They were then induced with the indicated ErbB ligands. Erk-kinase phosphorylation was used as a read-out for receptor activation.
For this purpose HT29 cells were serum-starved for 24 hours and pre-treated with the v6-specific or a control peptide. They were then induced with the indicated ErbB ligands. Erk-kinase phosphorylation was used as a read-out for receptor activation. All ligands could activate the Erk-kinase. […] These ligands are independent of CD44v6 for their induction of the ErbB receptors. This is especially striking, since EGF and TGF-α address the same receptor pairs (ErbB1/1 or ErbB1/2).

KEQWFGNRWHEGYR [SEQ ID NO: 6, human CD44v6 14mer peptide]
HGF-induced phosphorylation/activation of ERK (CD44v6 [1]): inhibited | HGF-induced phosphorylation/activation of Met (CD44v6 [1]): inhibited | HGF-induced phosphorylation/activation of ERK (CD44v6 [1]; listed as CD44v6 peptide): able to prevent activation | HGF-induced phosphorylation/activation of Met (CD44v6 [1]; listed as CD44v6 peptide): able to prevent activation | EGF-induced activation of the ErbB receptors (Erk phosphorylation) (CD44v6 [2]): blocking of Erk phosphorylation | EGF-induced activation of the ErbB receptors (Erk phosphorylation) (CD44v6 [2]; listed as CD44v6-specific peptide): could be blocked | Erk phosphorylation upon TGFα induction (CD44v6 [2]; MCF7, TGFα 20 ng/ml): not upon TGFα induction | EGF-dependent Erk-phosphorylation (CD44v6 [3]; HT29, serum-starved, 5 min pre-incubation, listed as CD44v6 peptide): could be inhibited | EGF-dependent Erk-phosphorylation (CD44v6 [3]; HT29, serum-starved, 5 min pre-incubation, listed as human v6 14mer): inhibited | HGF-dependent Erk-phosphorylation (CD44v6 [3]; HT29, serum-starved, 5 min pre-incubation, HGF as control ligand): could be inhibited | AR-induced activation of the ErbB receptors (Erk phosphorylation) (CD44v6 [3]; HT29, AR 20 ng/ml): could not be inhibited | BC-induced activation of the ErbB receptors (Erk phosphorylation) (CD44v6 [3]; HT29, BC 20 ng/ml): could not be inhibited | ER-dependent Erk-phosphorylation (CD44v6 [3]; HT29, ER 20 ng/ml): inhibited | HB-EGF-induced activation of the ErbB receptors (Erk phosphorylation) (CD44v6 [3]; HT29, HB-EGF 20 ng/ml): could not be inhibited | TGFα-induced activation of the ErbB receptors (Erk phosphorylation) (CD44v6 [3]; HT29, TGFα 20 ng/ml): could not be inhibited
